Broadly, the IC50 is the concentration needed to halve the response being measured.

For the experiment, the target named is T1, human kinase Mps-1 (Homo sapiens, UniProt P33981).
T1 construct: N-terminally GST-tagged human full length recombinant Mps-1 kinase; GST (N); purchased Invitrogen, Karslruhe, Germany PV4071
T1 sequence (P33981 1-857): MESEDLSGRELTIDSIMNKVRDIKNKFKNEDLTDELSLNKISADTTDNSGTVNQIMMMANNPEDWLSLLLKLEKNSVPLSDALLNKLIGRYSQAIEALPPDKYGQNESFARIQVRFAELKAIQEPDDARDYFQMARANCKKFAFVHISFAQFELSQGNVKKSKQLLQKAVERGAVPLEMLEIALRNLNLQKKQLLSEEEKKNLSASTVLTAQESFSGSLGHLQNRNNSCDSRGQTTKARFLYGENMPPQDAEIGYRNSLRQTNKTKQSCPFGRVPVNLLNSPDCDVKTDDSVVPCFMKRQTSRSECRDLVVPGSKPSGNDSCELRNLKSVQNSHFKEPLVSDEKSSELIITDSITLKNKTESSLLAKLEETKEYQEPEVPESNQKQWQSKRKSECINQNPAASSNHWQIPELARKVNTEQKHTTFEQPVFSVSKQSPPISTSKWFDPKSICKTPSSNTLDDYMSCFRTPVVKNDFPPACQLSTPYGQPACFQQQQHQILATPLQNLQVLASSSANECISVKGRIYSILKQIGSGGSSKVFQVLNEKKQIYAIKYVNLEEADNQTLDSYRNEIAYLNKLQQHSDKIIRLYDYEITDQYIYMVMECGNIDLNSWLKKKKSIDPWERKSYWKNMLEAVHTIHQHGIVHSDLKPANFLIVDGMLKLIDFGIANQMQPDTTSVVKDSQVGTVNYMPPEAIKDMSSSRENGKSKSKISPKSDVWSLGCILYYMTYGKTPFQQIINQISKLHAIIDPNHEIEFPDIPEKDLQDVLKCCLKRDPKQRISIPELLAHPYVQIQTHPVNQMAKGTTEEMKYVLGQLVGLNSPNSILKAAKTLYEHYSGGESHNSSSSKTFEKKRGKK
The experiment is described as follows: Mps-1 kinase assay (TR-FRET). The experiment is classed as biochemical. As to conditions: GST-tagged human full length recombinant Mps-1; 10 μM ATP; 1 μM peptide substrate; 60 min at 22° C. The method, then: The human kinase Mps-1 phosphorylates a biotinylated substrate peptide. Detection of the phosphorylated product is achieved by time-resolved fluorescence resonance energy transfer (TR-FRET) from Europium-labelled anti-phospho-Serine/Threonine antibody as donor to streptavidin labelled with cross-linked allophycocyanin (SA-XLent) as acceptor. Compounds are tested for their inhibition of the kinase activity.
N-terminally GST-tagged human full length recombinant Mps-1 kinase (purchased from Invitrogen, Karslruhe, Germany, cat. no PV4071) was used. As substrate for the kinase reaction a biotinylated peptide of the amino-acid sequence […] (C-terminus in amide form, purchased from Biosynthan GmbH, Berlin) was used.
The concentration of Mps-1 in the assay was adjusted to the activity of the enzyme lot and was chosen appropriate to have the assay in the linear range, typical enzyme concentrations were in the range of about 1 nM (final conc. in the 5 μl assay volume).
The resulting mixture was incubated 1 h at 22° C. to allow the binding of the phosphorylated peptide to the anti-phospho(Ser/Thr)-Europium-antibody. Subsequently the amount of phosphorylated substrate was evaluated by measurement of the resonance energy transfer from the Europium-labelled anti-phospho(Ser/Thr) antibody to the Streptavidin-XLent. Therefore, the fluorescence emissions at 620 nm and 665 nm after excitation at 350 nm was measured in a Viewlux TR-FRET reader (PerkinElmer LAS, Rodgau-Jügesheim, Germany). The “blank-corrected normalized ratio” (a Viewlux specific readout, similar to the traditional ratio of the emissions at 665 nm and at 622 nm, in which blank and Eu-donor crosstalk are subtracted from the 665 nm signal before the ratio is calculated) was taken as the measure for the amount of phosphorylated substrate.
Background: In TR-FRET formats the signal depends on donor and acceptor labels being close together.

`CC(=O)Nc1ccc(-c2cn3c(-c4ccc(C(=O)NC5CC5)cc4)cnc3c(NCC(C)C)n2)cn1` [Example 1-25, 4-{6-[6-(acetylamino)pyridin-3-yl]-8-[(2-methyl-propyl)amino]imidazo [1,2-a]pyrazin-3-yl}-N-cyclopropylbenzamide]: the IC50 came out at 0.0089 µM.
The same measure for `CC(C)CNc1nc(C2=CCNCC2)cn2c(-c3ccc(C(=O)NC4CC4)cc3)cnc12` [Example 1-26, N-cyclopropyl-4-{8-[(2-methylpropyl)amino]-6-(1,2,3,6-tetrahydro-pyridin-4-yl)imidazo [1,2-a]pyrazin-3-yl} benzamide]: 0.0029 µM.
In the case of `CC(C)CNc1nc(C2=CCN(C)CC2)cn2c(-c3ccc(C(=O)NC4CC4)cc3)cnc12` [Example 1-27, N-cyclopropyl-4-{8-[(2-methylpropyl)amino]-6-(1-methyl-1,2,3,6-tetra-hydropyridin-4-yl)imidazo[1,2-a]pyrazin-3-yl}benzamide] it was 0.0075 µM; in that of `CC(C)CNc1nc(C2=CCSCC2)cn2c(-c3ccc(C(=O)NC4CC4)cc3)cnc12` [Example 1-28, N-cyclopropyl-4-{6-(3,6-dihydro-2H-thiopyran-4-yl)-8-[(2-methylpropyl)amino]imidazo[1,2-a]pyrazin-3-yl}benzamide], 0.002 µM.
As to `CC(C)CNc1nc(C2=CCOCC2)cn2c(-c3ccc(C(=O)NC4CC4)cc3)cnc12` [Example 1-29, N-cyclopropyl-4-{6-(3,6-dihydro-2H-pyran-4-yl)-8-[(2-methylpropyl)amino]imidazo[1,2-a]pyrazin-3-yl}benzamide], the IC50 was 0.0014 µM.
The same measure for `CC(C)CNc1nc(-c2ccn[nH]2)cn2c(-c3ccc(C(=O)NC4CC4)cc3)cnc12` [Example 1-30, N-cyclopropyl-4-{8-[(2-methylpropyl)amino]-6-(1H-pyrazol-5-yl)imidazo[1,2-a]pyrazin-3-yl}benzamide]: 0.0017 µM; for `CC(C)CNc1nc(-c2ccc(CN(C)C)cc2)cn2c(-c3ccc(C(=O)NC4CC4)cc3)cnc12` [Example 1-31, N-cyclopropyl-4-(6-{4-[(dimethylamino)methyl]phenyl}-8-[(2-methyl-propyl)amino]imidazo [1,2-a]pyrazin-3-yl) benzamide]: 0.0033 µM; for `CC(C)CNc1nc(-c2ccncc2)cn2c(-c3ccc(C(=O)NC4CC4)c(Cl)c3)cnc12` [Example 1-32, 2-chloro-N-cyclopropyl-4-{8-[(2-methylpropyl)amino]-6-(pyridin-4-yl)imidazo[1,2-a]pyrazin-3-yl}benzamide]: 0.0062 µM.
Regarding `CC(C)CNc1nc(-c2ccoc2)cn2c(-c3ccc(C(=O)NC4CC4)c(Cl)c3)cnc12` [Example 1-33, 2-chloro-N-cyclopropyl-4-{6-(furan-3-yl)-8-[(2-methylpropyl)amino]imidazo[1,2-a]pyrazin-3-yl}benzamide], the IC50 is 0.0124 µM.
In the case of `CC(C)CNc1nc(-c2ccn[nH]2)cn2c(-c3ccc(C(=O)NC4CC4)c(Cl)c3)cnc12` [Example 1-34, 2-chloro-N-cyclopropyl-4-{8-[(2-methylpropyl)amino]-6-(1H-pyrazol-5-yl)imidazo[1,2-a]pyrazin-3-yl}benzamide] it was 0.0357 µM; in that of `CC(C)CNc1nc(C2=CCOCC2)cn2c(-c3ccc(C(=O)NC4CC4)c(Cl)c3)cnc12` [Example 1-35, 2-chloro-N-cyclopropyl-4-{6-(3,6-dihydro-2H-pyran-4-yl)-8-[(2-methyl-propyl)amino]imidazo [1,2-a]pyrazin-3-yl} benzamide], 0.0114 µM.
The same measure for `O=C(NC1CC1)c1ccc(-c2cnc3c(NCCC(F)(F)F)nc(-c4ccncc4)cn23)cc1Cl` [Example 1-36, 2-chloro-N-cyclopropyl-4-{6-(pyridin-4-yl)-8-[(3,3,3-trifluoropropyl)amino]imidazo[1,2-a]pyrazin-3-yl}benzamide]: 0.0059 µM; for `O=C(NC1CC1)c1ccc(-c2cnc3c(NCCC(F)(F)F)nc(-c4ccoc4)cn23)cc1Cl` [Example 1-37, 2-chloro-N-cyclopropyl-4-{6-(furan-3-yl)-8-[(3,3,3-trifluoropropyl)amino]imidazo[1,2-a]pyrazin-3-yl}benzamide]: 0.0081 µM.
`O=C(NC1CC1)c1ccc(-c2cnc3c(NCCC(F)(F)F)nc(-c4ccn[nH]4)cn23)cc1Cl` [Example 1-38, 2-chloro-N-cyclopropyl-4-{6-(1H-pyrazol-5-yl)-8-[(3,3,3-trifluoropropyl)amino]imidazo[1,2-a]pyrazin-3-yl}benzamide]: the half-maximal inhibitory concentration (IC50) came to 0.0141 µM.
With `O=C(NC1CC1)c1ccc(-c2cnc3c(NCCC(F)(F)F)nc(C4=CCOCC4)cn23)cc1Cl` [Example 1-39, 2-chloro-N-cyclopropyl-4-{6-(3,6-dihydro-2H-pyran-4-yl)-8-[(3,3,3-trifluoropropyl)amino]imidazo[1,2-a]pyrazin-3-yl}benzamide], the IC50 turned out to be 0.0122 µM.
For the molecule `CC(C)(O)CNc1nc(-c2ccncc2)cn2c(-c3ccc(C(=O)NC4CC4)c(Cl)c3)cnc12` [Example 1-40, 2-chloro-N-cyclopropyl-4-{8-[(2-hydroxy-2-methylpropyl)amino]-6-(pyridin-4-yl)imidazo [1,2-a]pyrazin-3-yl} benzamide], the IC50 was 0.0577 µM.
The same measure for `CC(C)(O)CNc1nc(-c2ccoc2)cn2c(-c3ccc(C(=O)NC4CC4)c(Cl)c3)cnc12` [Example 1-41, 2-chloro-N-cyclopropyl-4-{6-(furan-3-yl)-8-[(2-hydroxy-2-methylpropyl)amino]imidazo[1,2-a]pyrazin-3-yl}benzamide]: 0.0553 µM; for `O=C(NC1CC1)c1ccc(-c2cnc3c(NCC4CCCO4)nc(-c4ccncc4)cn23)cc1Cl` (centres unmarked) [Example 1-42, 2-chloro-N-cyclopropyl-4-{6-(pyridin-4-yl)-8-[(tetrahydrofuran-2-ylmethyl)amino]imidazo [1,2-a]pyrazin-3-yl} benzamide]: 0.0409 µM.
Turning to `O=C(NC1CC1)c1ccc(-c2cnc3c(NCC4CCCO4)nc(-c4ccoc4)cn23)cc1Cl` (centres unmarked) [Example 1-43, 2-chloro-N-cyclopropyl-4-{6-(furan-3-yl)-8-[(tetrahydrofuran-2-ylmethyl)amino]imidazo [1,2-a]pyrazin-3-yl} benzamide], the IC50 turned out to be 0.0428 µM.
The same measure for `O=C(NC1CC1)c1ccc(-c2cnc3c(NCC4CCCO4)nc(-c4ccn[nH]4)cn23)cc1Cl` (centres unmarked) [Example 1-44, 2-chloro-N-cyclopropyl-4-{6-(1H-pyrazol-5-yl)-8-[(tetrahydrofuran-2-ylmethyl)amino]imidazo [1,2-a]pyrazin-3-yl} benzamide]: 0.127 µM; for `O=C(NC1CC1)c1ccc(-c2cnc3c(NCC4CCCO4)nc(C4=CCOCC4)cn23)cc1Cl` (centres unmarked) [Example 1-45, 2-chloro-N-cyclopropyl-4-{6-(3,6-dihydro-2H-pyran-4-yl)-8-[(tetrahydro-furan-2-ylmethyl)amino]imidazo[1,2-a]pyrazin-3-yl}benzamide]: 0.105 µM.
The same measure for `Cn1nccc1CNc1nc(-c2ccncc2)cn2c(-c3ccc(C(=O)NC4CC4)c(Cl)c3)cnc12` [Example 1-46, 2-chloro-N-cyclopropyl-4-[8-{[(1-methyl-1H-pyrazol-5-yl)methyl]amino}-6-(pyridin-4-yl)imidazo[1,2-a]pyrazin-3-yl]benzamide]: 0.0326 µM.
The same measure for `Cn1nccc1CNc1nc(-c2ccoc2)cn2c(-c3ccc(C(=O)NC4CC4)c(Cl)c3)cnc12` [Example 1-47, 2-chloro-N-cyclopropyl-4-[6-(furan-3-yl)-8-{[(1-methyl-1H-pyrazol-5-yl)methyl]amino}imidazo [1,2-a]pyrazin-3-yl] benzamide]: 0.0255 µM.

For the origin of these results see US20140135319A1, “6-SUBSTITUTED IMIDAZOPYRAZINES FOR USE AS MPS-1 AND TKK INHIBITORS IN THE TREATMENT OF HYPERPROLIFERATIVE DISORDERS” (BAYER INTELLECTUAL PROPERTY GMBH, priority 2010, published 2014).
